Source: ChEMBL document CHEMBL4308841, “Synthesis, in vitro antiproliferative activity, and kinase inhibitory effects of pyrazole-containing diarylureas and diarylamides” (Eur J Med Chem, 2018)

Key:
[1] = test system: HCC 2998; experiment: Growth inhibition of human HCC2998 cells assessed as cell growth at 10 uM incubated for 48 hrs by sulforhodamine B assay relative to control; format: functional; details: HCC 2998, 48 h, read-out: Activity
[2] = test system: Malme-3M; experiment: Growth inhibition of human MALME-3M cells assessed as cell growth at 10 uM incubated for 48 hrs by sulforhodamine B assay relative to control; format: functional; details: read-out: Activity
[3] = test system: NCI-H226; experiment: Growth inhibition of human NCI-H226 cells assessed as cell growth at 10 uM incubated for 48 hrs by sulforhodamine B assay relative to control; format: functional; details: NCI-H226, 48 h, read-out: Activity
[4] = test system: MDA-MB-468; experiment: Growth inhibition of human MDA-MB-468 cells assessed as cell growth at 10 uM incubated for 48 hrs by sulforhodamine B assay relative to control; format: functional; details: MDA-MB-468, 48 h, read-out: Activity
[5] = test system: UACC-62; experiment: Growth inhibition of human UACC62 cells assessed as cell growth at 10 uM incubated for 48 hrs by sulforhodamine B assay relative to control; format: functional; details: UACC-62, 48 h, read-out: Activity
[6] = test system: RPMI-8226; experiment: Growth inhibition of human RPMI8226 cells assessed as cell growth at 0.1 uM incubated for 48 hrs by sulforhodamine B assay relative to control; format: functional; details: RPMI-8226, 48 h, read-out: Activity
[7] = test system: 786-0; experiment: Growth inhibition of human 786-0 cells assessed as cell growth at 1 uM incubated for 48 hrs by sulforhodamine B assay relative to control; format: functional; details: 786-0, 48 h, read-out: Activity
[8] = test system: COLO 205; experiment: Growth inhibition of human COLO205 cells assessed as cell growth at 10 uM incubated for 48 hrs by sulforhodamine B assay relative to control; format: functional; details: COLO 205, 48 h, read-out: Activity
[9] = test system: MOLT-4; experiment: Growth inhibition of human MOLT4 cells assessed as cell growth at 10 uM incubated for 48 hrs by sulforhodamine B assay relative to control; format: functional; details: MOLT-4, 48 h, read-out: Activity
[10] = test system: UO-31; experiment: Growth inhibition of human UO31 cells assessed as cell growth at 100 uM incubated for 48 hrs by sulforhodamine B assay relative to control; format: functional; details: UO-31, 48 h, read-out: Activity
[11] = test system: SF-295; experiment: Growth inhibition of human SF295 cells assessed as cell growth at 10 uM incubated for 48 hrs by sulforhodamine B assay relative to control; format: functional; details: SF-295, 48 h, read-out: Activity
[12] = test system: NCI-H322M; experiment: Growth inhibition of human NCI-H322M cells assessed as cell growth at 10 uM incubated for 48 hrs by sulforhodamine B assay relative to control; format: functional; details: read-out: Activity
[13] = test system: NCI-H23; experiment: Growth inhibition of human NCI-H23 cells assessed as cell growth at 0.1 uM incubated for 48 hrs by sulforhodamine B assay relative to control; format: functional; details: NCI-H23, 48 h, read-out: Activity
[14] = test system: SF-539; experiment: Growth inhibition of human SF539 cells assessed as cell growth at 100 uM incubated for 48 hrs by sulforhodamine B assay relative to control; format: functional; details: SF-539, 48 h, read-out: Activity
[15] = test system: SK-MEL-5; experiment: Growth inhibition of human SK-MEL-5 cells assessed as cell growth at 10 uM incubated for 48 hrs by sulforhodamine B assay relative to control; format: functional; details: SK-MEL-5, 48 h, read-out: Activity
[16] = test system: SW-620; experiment: Growth inhibition of human SW620 cells assessed as cell growth at 0.01 uM incubated for 48 hrs by sulforhodamine B assay relative to control; format: functional; details: SW-620, 48 h, read-out: Activity
[17] = test system: K562; experiment: Growth inhibition of human K562 cells assessed as cell growth at 10 uM incubated for 48 hrs by sulforhodamine B assay relative to control; format: functional; details: K562, 48 h, read-out: Activity
[18] = test system: DU-145; experiment: Growth inhibition of human DU145 cells assessed as cell growth at 0.1 uM incubated for 48 hrs by sulforhodamine B assay relative to control; format: functional; details: DU-145, 48 h, read-out: Activity
[19] = test system: HCT-15; experiment: Growth inhibition of human HCT15 cells assessed as cell growth at 10 uM incubated for 48 hrs by sulforhodamine B assay relative to control; format: functional; details: HCT-15, 48 h, read-out: Activity
[20] = test system: HCT-116; experiment: Growth inhibition of human HCT116 cells assessed as cell growth at 0.01 uM incubated for 48 hrs by sulforhodamine B assay relative to control; format: functional; details: HCT-116, 48 h, read-out: Activity
[21] = test system: Hs-578T; experiment: Growth inhibition of human Hs578T cells incubated for 48 hrs by sulforhodamine B assay; format: functional, cell-based
[22] = test system: CAKI-1; experiment: Growth inhibition of human Caki1 cells assessed as cell growth at 10 uM incubated for 48 hrs by sulforhodamine B assay relative to control; format: functional; details: CAKI-1, 48 h, read-out: Activity
[23] = test system: MDA-MB-435; experiment: Growth inhibition of human MDA-MB-435 cells assessed as cell growth at 10 uM incubated for 48 hrs by sulforhodamine B assay relative to control; format: functional; details: MDA-MB-435, 48 h, read-out: Activity
[24] = test system: IGROV-1; experiment: Growth inhibition of human IGROV1 cells assessed as cell growth at 10 uM incubated for 48 hrs by sulforhodamine B assay relative to control; format: functional; details: IGROV-1, 48 h, read-out: Activity
[25] = test system: SW-620; experiment: Growth inhibition of human SW620 cells assessed as cell growth at 1 uM incubated for 48 hrs by sulforhodamine B assay relative to control; format: functional; details: SW-620, 48 h, read-out: Activity
[26] = test system: UACC-257; experiment: Growth inhibition of human UACC257 cells assessed as cell growth at 10 uM incubated for 48 hrs by sulforhodamine B assay relative to control; format: functional; details: UACC-257, 48 h, read-out: Activity
[27] = test system: U-251; experiment: Growth inhibition of human U251 cells assessed as cell growth at 10 uM incubated for 48 hrs by sulforhodamine B assay relative to control; format: functional; details: U-251, 48 h, read-out: Activity
[28] = test system: CCRF-CEM; experiment: Growth inhibition of human CCRF-CEM cells assessed as cell growth at 10 uM incubated for 48 hrs by sulforhodamine B assay relative to control; format: functional; details: read-out: Activity
[29] = test system: MDA-MB-468; experiment: Growth inhibition of human MDA-MB-468 cells assessed as cell growth at 100 uM incubated for 48 hrs by sulforhodamine B assay relative to control; format: functional; details: MDA-MB-468, 48 h, read-out: Activity
[30] = test system: BT-549; experiment: Growth inhibition of human BT549 cells assessed as cell growth at 10 uM incubated for 48 hrs by sulforhodamine B assay relative to control; format: functional; details: BT-549, 48 h, read-out: Activity
[31] = test system: T47D; experiment: Growth inhibition of human T47D cells assessed as cell growth at 10 uM incubated for 48 hrs by sulforhodamine B assay relative to control; format: functional; details: read-out: Activity
[32] = test system: OVCAR-5; experiment: Growth inhibition of human OVCAR5 cells assessed as cell growth at 10 uM incubated for 48 hrs by sulforhodamine B assay relative to control; format: functional; details: OVCAR-5, 48 h, read-out: Activity
[33] = read-out: LC50 (the source's name)
[34] = read-out: pLC50 (the source's name) (converted)

Compound	growth at 10 µM [1]	growth at 10 µM [2]	growth at 10 µM [3]	growth at 10 µM [4]	growth at 10 µM [5]	growth at 0.1 µM [6]	growth at 1 µM [7]	growth at 10 µM [8]	growth at 10 µM [9]	growth at 100 µM [10]	growth at 10 µM [11]	growth at 10 µM [12]	growth at 0.1 µM [13]	growth at 100 µM [14]	growth at 10 µM [15]	growth at 0.01 µM [16]	growth at 10 µM [17]	growth at 0.1 µM [18]	growth at 10 µM [19]	growth at 0.01 µM [20]	also measured
COc1cc(Cl)cc(-c2nn(-c3cccc(NC(=O)Nc4ccc(Cl)c(C(F)(F)F)c4)c3)cc2-c2ccncc2)c1	18.1%	-19.8%	-2.82%	-14.4%	6.62%	100%	74%	-48.3%	-9.68%	-50%	-7.48%	18.7%	90%	-78%	-71.2%	98%	8.93%	98%	7.28%	104%	GI50 ([21]; read-out: GI50): 4.29 µM; CC50 [21, 33]: > 100 µM; TGI ([21]; read-out: TGI): 67.7 µM; GI50 ([21]; read-out: pGI50 (converted)): 4.27 µM; CC50 [21, 34]: > 100 µM; TGI ([21]; read-out: pTGI (converted)): 67.6 µM; growth at 10 µM [22]: 9.38%; growth at 10 µM [23]: -16.8%; growth at 10 µM [24]: 30.2%; growth at 1 µM [25]: 63%; growth at 10 µM [26]: -25.9%; growth at 10 µM [27]: -48.3%; growth at 10 µM [28]: 1.88%; growth at 100 µM [29]: -27%; growth at 10 µM [30]: 9.81%; growth at 10 µM [31]: 8.1%; growth at 10 µM [32]: 19.2%
COc1cc(Cl)cc(-c2nn(-c3cccc(NC(=O)Nc4cc(C(F)(F)F)cc(C(F)(F)F)c4)c3)cc2-c2ccncc2)c1	9.5%	-19.2%	-5.97%	-2.95%	-21.2%	87%	38%	-64%	-24.6%	-82%	-43.2%	11%	95%	-73%	-79.4%	98%	6.4%	95%	6.21%	102%	IC50 [21]: 1.4 µM; GI50 ([21]; read-out: GI50): 1.4 µM; TGI ([21]; read-out: TGI): 7.26 µM; GI50 ([21]; read-out: pGI50 (converted)): 1.45 µM; CC50 [21, 34]: > 100 µM; TGI ([21]; read-out: pTGI (converted)): 7.24 µM; growth at 10 µM [22]: 8.99%; growth at 10 µM [23]: -19.4%; growth at 10 µM [24]: 23%; growth at 1 µM [25]: 19%; growth at 10 µM [26]: -25.6%; growth at 10 µM [27]: -58%; growth at 10 µM [28]: -22%; growth at 100 µM [29]: -40%; growth at 10 µM [30]: 6.61%; growth at 10 µM [31]: 6.56%; growth at 10 µM [32]: 21.6%
COc1cc(Cl)cc(-c2nn(-c3cccc(NC(=O)Nc4ccc(Cl)c(Cl)c4)c3)cc2-c2ccncc2)c1	26.7%	-19.8%	7.27%	0.72%	4.38%	100%	84%	-70.3%	-16.1%	-10%	-2.42%	32.3%	93%	-40%	3.51%	100%	10%	97%	13.9%	105%	GI50 ([21]; read-out: GI50): 3.59 µM; CC50 [21, 33]: > 100 µM; TGI ([21]; read-out: TGI): > 100 µM; GI50 ([21]; read-out: pGI50 (converted)): 3.89 µM; CC50 [21, 34]: > 100 µM; TGI ([21]; read-out: pTGI (converted)): > 100 µM; growth at 10 µM [22]: 7.49%; growth at 10 µM [23]: 0.46%; growth at 10 µM [24]: 36.7%; growth at 1 µM [25]: 93%; growth at 10 µM [26]: -11.4%; growth at 10 µM [27]: 3.01%; growth at 10 µM [28]: 5.73%; growth at 100 µM [29]: -18%; growth at 10 µM [30]: 29.4%; growth at 10 µM [31]: 18.6%; growth at 10 µM [32]: 37.8%
